This is an account of results in US20050003008A1, “Method of in vivo drug targeting to solid tumors via acoustically triggered drug delivery in polymeric micelles” (priority 1997, published 2005).

The subject of series [1] is leukosis, La, P-388, and L-1210; solid tumors. The note with it: P-388, L-1210 in mice, solid tumors in rats; cited from earlier work.
Series [2] concerns drug-sensitive ovarian carcinoma A2780 cells. As to the kind of experiment: Growth inhibition of drug-sensitive ovarian carcinoma cells (IC75). The series is classed as cell-based. Here is the method:
(§1) It should be noted that because of the cytostatic action of micelles, the inhibitory concentration IC50 values for drugs become meaningless; for example, upon 3-hour incubation with a drug-free 10% P-105 micelles followed by three days culturing in a PLURONIC-free RPMI 1640 medium, the growth inhibition of both sensitive and resistant cells exceeded 50%. […] For cases like this it would be more informative to compare, e.g., IC75 values.

The subject of series [3] is breast and colon carcinomas and bone sarcoma. The conditions noted are these: cited from earlier work.
Series [4] relates to HL-60 cells. Put plainly: Intracellular drug uptake by HL-60 cells (lysate fluorescence). Format: cell-based. As to the method:
Intracellular uptake of doxorubicin and ruboxyl was measured using a fluorescence technique wherein compounds were excited at 488 nm and technical emission spectra were recorded at 510-700 nm. Two sets of samples were studied, incubated, and sonicated. Ultrasound was generated by a Sonicor SC100 sonication bath operating at 70 kHz and 37° C. Power density was controlled by adjusting the input voltage and was measured with a hydrophone.
For the first set of samples, the cells were incubated at 37° C. with doxorubicin or ruboxyl, which were either dissolved in the RPMI medium or PBS, or the drugs were solubilized in PLURONIC P-105 solutions of various concentrations. For the second set of samples, the cells were sonicated by 70 kHz ultrasound at 37° C. to assess the effect of ultrasound on the drug uptake from molecular and micellar solutions. After being incubated/sonicated with and without the drug, the cells were centrifuged, washed twice with cold PBS, resuspended in PBS, and the fluorescence spectra of cell suspensions were recorded. The fluorescence intensity of the untreated cells was subtracted from that of the drug-treated cells. Because drug fluorescence within the cells was substantially quenched, drug uptake was quantified by lysing the cells by incubating them with 1 wt % SDS solution for 1-2 hours at 37° C. This process transferred the drug from cellular components to SDS micelles. […] Upon the completion of cell lysis, fluorescence spectra of the lysates were recorded. To quantify the concentration of lysed cells, cell lysates were filtered through 0.2 μm filters, and their optical densities were measured by protein absorbance at 280 nm (OD 280 nm). […] The fluorescence intensity of lysates ws normalized by OD 280 nm.

Series [5] in a line: Drug partitioning between PLURONIC micelles and polystyrene latex particles. Format: physicochemical. Here is the method:
To study solute release from PLURONIC micelles, the partitioning of the solute between the micelles and the surface of polystyrene latex particles was investigated. A spin probe, DSTA, or the drug, ruboxyl, was solubilized in PLURONIC P-105 solutions of various concentrations. A suspension of polystyrene latex particles (average diameter 0.9 μm, 50 μl/ml) was incubated with 1 ml of DSTA or ruboxyl solution in PLURONIC P-105, and depletion of the probe in the supernatant was measured by the EPR (for DSTA) or fluorescence (for ruboxyl) technique upon polystyrene particle separation.
An important question pertinent to this research was how tightly the solubilized drug was associated with PLURONIC micelles. To investigate this problem, ruboxyl adsorption on polystyrene latex particles was measured from molecular solutions of ruboxyl in PBS and from micellar PLURONIC solutions. Ruboxyl readily adsorbs onto polystyrene surfaces. About 90% of the drug is transferred onto polystyrene surface from ruboxyl solutions in PBS. PLURONIC micelles, however, compete for ruboxyl with polystyrene surfaces; only about 40% of ruboxyl solubilized in PLURONIC micelles (20 wt % solutions of PLURONIC P-105) is transferred onto the polystyrene surface, the remainder being retained within the PLURONIC micelles.

The subject of series [6] is MDR ovarian carcinoma A2780/ADR cells. As to the kind of experiment: Growth inhibition / cell kill of MDR ovarian carcinoma cells with Pluronic and ultrasound. The series is classed as cell-based. The note with it: for IC75: A2780/ADR. As to the method: as §1
As an example, when the MDR cell were incubated with drug-free 10% PLURONIC micelles for three hours, upon which they were sonicated for 10 minutes by 69-kHz ultrasound at 3.2 W/cm^2 and cultured for 72 hours, the growth of the MDR cell dropped to forty percent of the unsonicated non-incubated control.
For the MDR cells, PLURONIC and ultrasound effects are especially important. At the absence of micelles, only about forty percent of the MDR cells are killed at DOX or Rb concentrations as high as 100 μg/ml. However, when the MDR cells were incubated with 5 μg/ml DOX for three hours in the presence of a unimeric Pluronic solution followed by a 10-minute sonication by 69-kHz ultrasound at 3.2 W/cm^2, sixty six percent of the cells died upon subsequent cell culturing vs. fifty three percent without ultrasound; only fifteen percent of the MDR cells die upon incubation with 5 μg/ml DOX without Pluronic and ultrasound treatment.
Ultrasound-induced increased intracellular uptake was accompanied by a dramatic sensitization of the MDR cells to the action of DOX (FIG. 10). […] Even without ultrasound, IC50 of DOX in the MDR ovarian carcinoma cells dropped 50-fold in the presence of PLURONIC unimers and micelles.

A short description of series [7]: Effects of PLURONIC micelles and ultrasound on drug uptake and cytotoxicity, other drugs. The series is classed as cell-based. The source says: It is important to note that the effects of PLURONIC micelles and ultrasound on drug uptake and cytotoxicity described above for DOX were also observed for another anthracycline drug, Ruboxyl. […] This implies that the new modality of drug delivery described here will have general applicability to a wide variety of drugs and drug delivery systems.

In a further series the test system is DNA. As to the kind of experiment: Drug intercalation into DNA (fluorescence drop). Format: binding. The conditions noted are these: drug introduced from micellar solution. The source says:
Ruboxyl and doxorubicin encapsulation in PLURONIC micelles restricted not only drug interaction with the cells, but also drug interaction with cell components, e.g. DNA.

Another series concerns A2780 tumor. Put plainly: In vivo DOX uptake by sonicated A2780 tumor.
In series [8] the test system is ovarian carcinoma drug-sensitive A2780 cells. As to the kind of experiment: Intracellular DOX uptake by A2780 cells under 1 MHz ultrasound (flow cytometry). The series is classed as cell-based. Here is the method: Fluorescence histograms of the A2780 cells incubated or sonicated in the presence of DOX are shown. The initial concentration of cells ranged from 3×10^6 to 5×10^6 cells/ml as determined using a hemacytometer. After exposure to DOX (10 μg/ml to 50 μg/ml in various experiments) and ultrasound (15 to 30 s), cells were counted again to measure the degree of sonolysis, upon which they were centrifuged, washed with PBS, fixed with a 3% formalin or 2.5% glutaraldehide, and analyzed by flow cytometry. Fluorescence histograms were recorded with a FACScan flow cytometer (Beckton Dickinson) and analyzed using CellQuest software supplied by the manufacturer. A minimum of 10,000 events was analyzed to generate each histogram.
The experiments on the effect of ultrasound on the intracellular DOX uptake with and without micelles were always conducted in parallel, at the same day and using the same batch of the cells.

Series [9] relates to HL-60 cells. The note with it: combination of micellar delivery and ultrasonication; cited from earlier work.
In the next series the test system is A2780 cells. Put plainly: Survival of ovarian carcinoma-bearing mice. Format: in vivo. The conditions noted are these: DOX 3 mg/kg intraperitoneally in PLURONIC P-105 micelles, sonication one hour after injection. Here is the method:
A2780 cells (1×10^6) were inoculated intraperitoneally. DOX in PBS or PLURONIC P-105 micelles was injected intraperitoneally the next day after cell inoculation. Sonication of the abdominal region was performed one hour after DOX injection.

Series [10] is described as follows: Ultrasound-triggered drug release from PLURONIC P-105 micelles. Format: physicochemical. The text has this:
The measurements of the degree of drug release are based on the decrease of DOX fluorescence intensity when DOX is transferred from the hydrophobic environment of micelle cores to the aqueous environment. An argon-ion laser beam of 488 nm was directed to a drug-containing cuvette to excite fluorescence. The emissions were collected using a fiber optic collector and filtered to remove the excitation wavelength. The emissions were quantified using a photodetector, digitized with a 12-bit A/D converter, and stored in a Macintosh computer for further analysis.
Digitized fluorescence intensity data were analyzed to calculate the percent of the drug release from micelles. A fluorescence intensity of a 10 μg/ml DOX solution in PBS (IPBS) was measured first; the PBS solution was then carefully sucked out of the cuvette and replaced with a 10 μg/ml DOX solution in 10% PLURONIC P-105 micelles. Fluorescence of this solution (Imic) was measured, and a difference Imic−IPBS was assumed to correspond to a […] drug release from micelles. Then, ultrasound was switched on, and DOX fluorescence under sonication (Ius) was recorded; if sonication induced partial drug release from micelles into the aqueous environment, Ius was lower than Imic; the “ultrasound on”-“ultrasound off” cycles were repeated several times to check reproducibility. The length of each ultrasound exposure cycle was 1 to 2 minutes. […] The degree of drug release (DDR) was calculated as follows: DDR={[Imic−Ius]/[Imic−IPBS]}×100

Series [11] has as its system MDR ovarian carcinoma A2780/ADR cells. Put plainly: Growth inhibition / cell kill of MDR ovarian carcinoma cells with Pluronic and ultrasound. The series is classed as cell-based. The conditions noted are these: 10-min sonication by 67-kHz ultrasound.
The mark [12] stands for this setting: PLURONIC concentration 0.1%, below CMC.
The mark [13] stands for this setting: drug sequestered in dense PLURONIC P-105 micelles vs free drug.
Setting [14] is: absence of micelles, drug concentration 100 μg/ml.

Values after ≈ are worked out from the molar mass of the structure shown.

`COc1cccc2c1C(=O)c1c(O)c3c(c(O)c1C2=O)C[C@@](O)(/C(C)=N/N=C1CC(C)(C)N(O)C(C)(C)C1)C[C@@H]3O[C@H]1C[C@H](N)[C@H](O)[C@H](C)O1.Cl` [Rb, ruboxyl]: the anti-tumor activity entry in series [1] is listed as “high”. Also, the IC75 in [2] (A2780, P-105 10% (micelles)) was 0.9 µg/mL; in [2] (A2780, RPMI (no Pluronic)), 1.5 µg/mL; in series [6] (P-105 10% (micelles)), 17 ± 3 µg/mL; in series [6] (RPMI (no Pluronic)), greater than 100 µg/mL. The clinical efficacy entry in [3] (breast and colon carcinomas and bone sarcoma) was “effective”. Also, the cardiotoxicity result in series [3] (clinical trials) is “reduced”. Also, the “drug uptake by HL-60 cells” value with HL-60 cells [4] (setting [12]) is given as “somewhat enhanced”; in the series with HL-60 cells [4] (setting [13]), “substantial decrease”. For the same compound, the “drug transferred onto polystyrene surface” value in series [5] (from ruboxyl solutions in PBS) is on record as “About 90%”; in [5] (solubilized in PLURONIC micelles (20 wt % PLURONIC P-105)), “about 40%”. The MDR cells killed result in series [6] (setting [14]) is on record as “about forty”. In series [7], the “effects of PLURONIC micelles and ultrasound on drug uptake and cytotoxicity” value is recorded as “also observed”. The drug-DNA interaction entry with DNA was “lower drug-DNA interaction”.

For `COc1cccc2c1C(=O)c1c(O)c3c(c(O)c1C2=O)C[C@@](O)(C(=O)CO)C[C@@H]3O[C@H]1C[C@H](N)[C@H](O)[C@H](C)O1` [DOX, Doxorubicin], the “DOX uptake by other organs under ultrasound” value in the series with A2780 tumor (3-MHz ultrasound) is recorded as “not affected”. In addition, the “DOX uptake by cells of the sonicated tumor” value in the series on A2780 tumor (DOX 6 mg/kg intravenously, 1 MHz or 3 MHz ultrasound 1.7 W/cm2) is listed as “dramatically enhanced”. Also, the “DOX uptake, sonicated vs unsonicated cells” value in series [8] (sonicated 15 s vs unsonicated incubated 30 min, same DOX concentration) is recorded as “significantly higher”. For the same compound, in series [8] (sonication at 1 MHz, from PBS or RPMI 1640), the “intracellular uptake of DOX” value was “substantially increased”. The IC75 in series [2] (A2780, P-105 0.1% (unimers)) is 1.3 µg/mL (≈ 2.39 µM); in [2] (A2780, P-105 10% (micelles)), 1.3 µg/mL (≈ 2.39 µM); in series [2] (A2780, RPMI (no Pluronic)), 1.3 µg/mL (≈ 2.39 µM); in series [6] (P-105 0.1% (unimers)) it was 12 ± 2 µg/mL (≈ 22.1 µM); in series [6] (P-105 10% (micelles)), 16 ± 2 µg/mL (≈ 29.4 µM); in [6] (RPMI (no Pluronic)) it was greater than 100 µg/mL. Besides, the effective drug dose result in the series on HL-60 cells [9] is recorded as “substantial decrease”. The “life span vs conventional drug introduction” value in the series on A2780 cells is on record as “much longer”. For the same compound, the results for the “power density required for 10% DOX release” value in series [10] (1.0-MHz ultrasound), in series [10] (20-kHz ultrasound) and in series [10] (67-kHz ultrasound) were 7.2 W/cm^2, 0.058 W/cm^2 and 2.8 W/cm^2, respectively. Also, the “drug uptake by HL-60 cells” value is reported as “somewhat enhanced” in the series on HL-60 cells [4] (setting [12]) and “substantial decrease” in the series with HL-60 cells [4] (setting [13]). Moreover, the MDR cells died entry in [6] (5 μg/ml DOX three hours in unimeric Pluronic solution, 10-minute sonication 69-kHz 3.2 W/cm^2) is “sixty six”; in [6] (5 μg/ml DOX three hours in unimeric Pluronic solution, without ultrasound) it was “fifty three”; in series [6] (5 μg/ml DOX without Pluronic and ultrasound treatment), “fifteen”. For the same compound, the MDR cells killed in series [6] (PLURONIC micelle and ultrasound, DOX concentration 0.78 μg/ml) was 100%; in series [6] (setting [14]) it was “about forty”. For the same compound, the “fraction of MDR cells highly resistant to DOX” value in [6] (conventional medium, DOX 50 μg/ml) is reported as “about 55%”; in series [6] (in the presence of PLURONIC micelles) it was “completely eliminated”; in series [11], “about 30%”. In addition, the “drop of IC50 of DOX” value in series [6] (presence of PLURONIC unimers and micelles, without ultrasound) came to 50 fold. Also, the drug-DNA interaction entry in the series with DNA is listed as “lower drug-DNA interaction”.

Consider `CC(=O)O[C@H]1C(=O)[C@@]2(C)[C@H]([C@H](OC(=O)c3ccccc3)[C@]3(O)C[C@H](OC(=O)[C@H](O)[C@@H](NC(=O)c4ccccc4)c4ccccc4)C(C)=C1C3(C)C)[C@]1(OC(C)=O)CO[C@@H]1C[C@@H]2O` [taxol], for which, in series [7], the “effects of PLURONIC micelles and ultrasound on drug uptake and cytotoxicity” value was “promising results”.

One may read the IC75 as the point of the concentration-response curve where the effect stands at 75%.
